Experimental data published in ChEMBL document CHEMBL3885881, “DrugMatrix”.

Species: Rattus norvegicus
Experiment: DrugMatrix - Regimen: Daily Repeat
Format: toxicity, organism-based, Sprague-Dawley
Design: regimen Daily Repeat, gender Male, age 6-8 weeks
Conditions: in vivo, po, route oral GAVAGE, vehicle .5 % CMC; for ABSOLUTE BASOPHIL / ABSOLUTE EOSINOPHIL / ABSOLUTE LYMPHOCYTE / ABSOLUTE MONOCYTE / ABSOLUTE SEGMENTED NEUTROPHIL / BASOPHIL / EOSINOPHIL / ERYTHROCYTE COUNT / HEMATOCRIT / HEMOGLOBIN / LEUKOCYTE COUNT / LYMPHOCYTE / MEAN CORPUSCULAR HEMOGLOBIN / MEAN CORPUSCULAR HEMOGLOBIN CONCENTRATION / MEAN CORPUSCULAR VOLUME / MONOCYTE / NEUTROPHIL / NUCLEATED RED BLOOD CELLS / PLATELET COUNT: tissue Blood; for ALANINE AMINOTRANSFERASE / ALBUMIN / ALKALINE PHOSPHATASE / ASPARTATE AMINOTRANSFERASE / BLOOD UREA NITROGEN / CARBON DIOXIDE / CHLORIDE / CHOLESTEROL / CREATINE PHOSPHOKINASE / CREATININE / GLUCOSE / LACTATE DEHYDROGENASE / LIPASE / PHOSPHORUS / POTASSIUM / SODIUM / TOTAL BILIRUBIN / TOTAL PROTEIN / URIC ACID: tissue Plasma
[1] = 200 mg/kg, 120 h, dose level Low, time 5 day
[2] = 2500 mg/kg, 72 h, dose level High, time 3 day
[3] = 2500 mg/kg, 120 h, dose level High, time 5 day

## Cc1cnc(C(=O)NCCc2ccc(S(=O)(=O)NC(=O)NC3CCCCC3)cc2)cn1 [GLIPIZIDE]
[1]
  ABSOLUTE BASOPHIL: 0 CELLS/uL
  ABSOLUTE EOSINOPHIL: 50.67 CELLS/uL
  ABSOLUTE LYMPHOCYTE: 13488 CELLS/uL
  ABSOLUTE MONOCYTE: 195 CELLS/uL
  ABSOLUTE SEGMENTED NEUTROPHIL: 633 CELLS/uL
  BASOPHIL: 0%
  EOSINOPHIL: 0.33%
  ERYTHROCYTE COUNT: 5.57 x10E6/uL
  HEMATOCRIT: 34.23%
  HEMOGLOBIN: 13.7 G/DL
  LEUKOCYTE COUNT: 14.37 x10E3/uL
  LYMPHOCYTE: 94%
  MEAN CORPUSCULAR HEMOGLOBIN: 24.63 pg
  MEAN CORPUSCULAR HEMOGLOBIN CONCENTRATION: 40 G/DL
  MEAN CORPUSCULAR VOLUME: 61.53 fL
  MONOCYTE: 1.33%
  NEUTROPHIL: 4.33%
  NUCLEATED RED BLOOD CELLS: 0 /100WBC
  PLATELET COUNT: 1282.33 x10E3/uL
  ALANINE AMINOTRANSFERASE: 62.33 u/L
  ALBUMIN: 4.3 G/DL
  ALKALINE PHOSPHATASE: 343.67 u/L
  ASPARTATE AMINOTRANSFERASE: 82.67 u/L
  BLOOD UREA NITROGEN: 14 mg/dL
  CARBON DIOXIDE: 32.33 mmol/L
  CHLORIDE: 103 MEQ/L
  CHOLESTEROL: 74.67 mg/dL
  CREATINE PHOSPHOKINASE: 208.33 u/L
  CREATININE: 0.13 mg/dL
  GLUCOSE: 118.67 mg/dL
  LACTATE DEHYDROGENASE: 116.33 u/L
  LIPASE: 10.67 u/L
  PHOSPHORUS: 10.77 mg/dL
  POTASSIUM: 6.11 MEQ/L
  SODIUM: 144.93 MEQ/L
  TOTAL BILIRUBIN: 0.2 mg/dL
  TOTAL PROTEIN: 6.03 G/DL
  URIC ACID: 0.9 mg/dL
[2]
  ABSOLUTE BASOPHIL: 0 CELLS/uL
  ABSOLUTE EOSINOPHIL: 83.33 CELLS/uL
  ABSOLUTE LYMPHOCYTE: 11306.67 CELLS/uL
  ABSOLUTE MONOCYTE: 81.67 CELLS/uL
  ABSOLUTE SEGMENTED NEUTROPHIL: 861.67 CELLS/uL
  BASOPHIL: 0%
  EOSINOPHIL: 0.67%
  ERYTHROCYTE COUNT: 5.69 x10E6/uL
  HEMATOCRIT: 36.9%
  HEMOGLOBIN: 14.23 G/DL
  LEUKOCYTE COUNT: 12.33 x10E3/uL
  LYMPHOCYTE: 91.67%
  MEAN CORPUSCULAR HEMOGLOBIN: 25.07 pg
  MEAN CORPUSCULAR HEMOGLOBIN CONCENTRATION: 38.57 G/DL
  MEAN CORPUSCULAR VOLUME: 64.9 fL
  MONOCYTE: 0.67%
  NEUTROPHIL: 7%
  NUCLEATED RED BLOOD CELLS: 0 /100WBC
  PLATELET COUNT: 1346.67 x10E3/uL
  ALANINE AMINOTRANSFERASE: 54 u/L
  ALBUMIN: 4.17 G/DL
  ALKALINE PHOSPHATASE: 318.33 u/L
  ASPARTATE AMINOTRANSFERASE: 75.33 u/L
  BLOOD UREA NITROGEN: 16 mg/dL
  CARBON DIOXIDE: 31 mmol/L
  CHLORIDE: 102.33 MEQ/L
  CHOLESTEROL: 72.33 mg/dL
  CREATINE PHOSPHOKINASE: 179.33 u/L
  CREATININE: 0.15 mg/dL
  GLUCOSE: 148.67 mg/dL
  LACTATE DEHYDROGENASE: 104.33 u/L
  LIPASE: 10 u/L
  PHOSPHORUS: 11.9 mg/dL
  POTASSIUM: 6.37 MEQ/L
  SODIUM: 143.83 MEQ/L
  TOTAL BILIRUBIN: 0.17 mg/dL
  TOTAL PROTEIN: 5.63 G/DL
  URIC ACID: 1.7 mg/dL
[3]
  ABSOLUTE BASOPHIL: 0 CELLS/uL
  ABSOLUTE EOSINOPHIL: 102.33 CELLS/uL
  ABSOLUTE LYMPHOCYTE: 11867.33 CELLS/uL
  ABSOLUTE MONOCYTE: 0 CELLS/uL
  ABSOLUTE SEGMENTED NEUTROPHIL: 1397 CELLS/uL
  BASOPHIL: 0%
  EOSINOPHIL: 0.67%
  ERYTHROCYTE COUNT: 5.55 x10E6/uL
  HEMATOCRIT: 34.63%
  HEMOGLOBIN: 14.1 G/DL
  LEUKOCYTE COUNT: 13.37 x10E3/uL
  LYMPHOCYTE: 88%
  MEAN CORPUSCULAR HEMOGLOBIN: 25.4 pg
  MEAN CORPUSCULAR HEMOGLOBIN CONCENTRATION: 40.73 G/DL
  MEAN CORPUSCULAR VOLUME: 62.37 fL
  MONOCYTE: 0%
  NEUTROPHIL: 11.33%
  NUCLEATED RED BLOOD CELLS: 0 /100WBC
  PLATELET COUNT: 1273.67 x10E3/uL
  ALANINE AMINOTRANSFERASE: 58 u/L
  ALBUMIN: 4.37 G/DL
  ALKALINE PHOSPHATASE: 329 u/L
  ASPARTATE AMINOTRANSFERASE: 83.33 u/L
  BLOOD UREA NITROGEN: 15 mg/dL
  CARBON DIOXIDE: 30.67 mmol/L
  CHLORIDE: 100.67 MEQ/L
  CHOLESTEROL: 71 mg/dL
  CREATINE PHOSPHOKINASE: 224.33 u/L
  CREATININE: 0.19 mg/dL
  GLUCOSE: 140.33 mg/dL
  LACTATE DEHYDROGENASE: 117 u/L
  LIPASE: 7.67 u/L
  PHOSPHORUS: 11.13 mg/dL
  POTASSIUM: 5.21 MEQ/L
  SODIUM: 146.2 MEQ/L
  TOTAL BILIRUBIN: 0.2 mg/dL
  TOTAL PROTEIN: 6.17 G/DL
  URIC ACID: 0.8 mg/dL
